Measurements taken from US11351170B2, “Substituted pyrimidines as CDK4/6 inhibitors” (priority 2017, dated 2022).
Values joined by “and” are separate entries in the source; they are usually repeats but may differ in a detail not shown here. Equal entries are not always repeated. Where two headings read alike, the source gives them in different places. Each block holds one molecule with its values, some of them ahead of it.

Legend:
CDK4 = CDK4 (Homo sapiens (Human), UniProt P11802); test: CDK4 Inhibition Assay; format: biochemical
Description: (§1) CDK4 Inhibition Assay. […] The same volume of DMSO was adopted as high control (HC). 20 nL of compound solution in DMSO (diluted) were dispensed into anew 384-well assay plate by Echo 550. […] Kinase assay buffer supplemented with substrate peptides was employed as low control (LC) to monitor the background. 400 µM ATP was prepared in kinase assay buffer containing and 15 μL of ATP solution was added to each well to start the reaction. The assay plate was incubated at 25° C. for 90 minutes and the reaction was stopped by adding 40 μL of 0.5 M EDTA.
Phosphorylated fluorescent-tagged peptides were differentiated from non-phosphorylated peptides by separating using Caliper EZ Reader II and the detection was directly converted to conversion ratio (ratio of phosphorylated to non-phosphorylated peptide).
For estimation of IC50, the % substrate conversion values are transformed to % relative activity by applying the following equation: […]

CDK6 = CDK6 (Homo sapiens (Human), UniProt Q00534); test: CDK6 Inhibition Assay; format: biochemical
Description: as §1, with “CDK6” for “CDK4”, “nL” for “nL of”, “a new” for “anew”

CDK2 = CDK2 (Homo sapiens (Human), UniProt P24941); test: CDK2 Inhibition Assay; format: biochemical
Description: (§2) CDK2 Inhibition Assay. […] The same volume of DMSO was adopted as high control. 20 nL of the test compound solution in DMSO were dispensed into a new 384-well assay plate by Echo 550. […] Kinase assay buffer supplemented with substrate peptides was employed as low control to monitor the background. 400 µM ATP was prepared in kinase assay buffer containing and 5 μL of ATP solution was added to each well to start the reaction. The assay plate was incubated at 25° C. for 90 minutes and the reaction was stopped by adding 40 μL of 0.5 M EDTA.
Phosphorylated fluorescent-tagged peptides were differentiated from non-phosphorylated peptides by separating using Caliper EZ Reader II and the detection was directly converted to conversion ratio.

CDK5 = CDK5 (Homo sapiens (Human), UniProt Q00535); test: CDK5 Inhibition Assay; format: biochemical
Description: as §2, with “CDK5” for “CDK2”, “40” for “400”

HSPCs = settings: CDK4/6 dependent subsets of healthy cells such as HSPCs; cited from earlier work
[1] = Metabolic stability in human liver microsomes; format: in vitro ADME; settings: human liver microsomes 0.5 mg/mL
Description: (§3) Metabolic stability of compounds is assessed at […] with human, rat, mouse, dog, and monkey liver microsomes (0.5 mg/mL). Compound and protein are equilibrated at 37° C. for 5 min prior to reaction initiation with co-factor NADPH. […] After quenching and centrifugation, supernatants were analyzed by LC-MS with methods specific to compounds tested.

[2] = Metabolic stability in rat liver microsomes; format: in vitro ADME; settings: rat liver microsomes 0.5 mg/mL
Description: as §3

[3] = Metabolic stability in mouse liver microsomes; format: in vitro ADME; settings: mouse liver microsomes 0.5 mg/mL
Description: as §3

[4] = Metabolic stability in dog liver microsomes; format: in vitro ADME; settings: dog liver microsomes 0.5 mg/mL
Description: as §3

[5] = Metabolic stability in monkey liver microsomes; format: in vitro ADME; settings: monkey liver microsomes 0.5 mg/mL
Description: as §3

HS68 cells = HS68 cells treated for 24 hours
Description: HS68 cells (human skin fibroblast cell line, ATCC) were treated for 24 hours with compounds of the present invention at 0, 1, 3, 10, 30, 100, 300, or 1,000 nmol/L final concentration. Cells were harvested and fixed in ice-cold 70% ethanol (Sigma-Aldrich). Fixed cells were washed with PBS, stained with 40 μg/mL propidium iodide (Thermofisher Scientific), 10 g RNAseA (Sigma-Aldrich) in PBS-CMF (calcium magnesium free). Samples were processed using flow cytometer (Fisher), and cell-cycle analysis was completed using FlowJo software (Tree Star).

[6] = Mouse pharmacokinetics (p.o. and i.v.)
Description: Blood samples were taken at 0.083, 0.25, 0.5, 1.0, 3.0, 6.0 and 24 hours post i.v. dosing and at 0.25, 0.5, 1.0, 3.0, 6.0 and 24 hours post p.o. dosing. The plasma concentration of compounds were determined by HPLC.

Sequence of CDK6 (Q00534 whole entry): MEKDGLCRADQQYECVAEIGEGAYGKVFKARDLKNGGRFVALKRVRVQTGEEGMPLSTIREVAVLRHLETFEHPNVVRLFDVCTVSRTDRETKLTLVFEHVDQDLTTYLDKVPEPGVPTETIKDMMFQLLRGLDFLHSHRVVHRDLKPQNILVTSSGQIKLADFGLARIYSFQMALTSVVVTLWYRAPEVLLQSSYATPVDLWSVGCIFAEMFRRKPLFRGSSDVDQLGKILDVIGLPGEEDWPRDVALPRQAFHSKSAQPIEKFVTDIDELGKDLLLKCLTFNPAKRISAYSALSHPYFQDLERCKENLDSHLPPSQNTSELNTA
Sequence of CDK6 (P30281 whole entry partner): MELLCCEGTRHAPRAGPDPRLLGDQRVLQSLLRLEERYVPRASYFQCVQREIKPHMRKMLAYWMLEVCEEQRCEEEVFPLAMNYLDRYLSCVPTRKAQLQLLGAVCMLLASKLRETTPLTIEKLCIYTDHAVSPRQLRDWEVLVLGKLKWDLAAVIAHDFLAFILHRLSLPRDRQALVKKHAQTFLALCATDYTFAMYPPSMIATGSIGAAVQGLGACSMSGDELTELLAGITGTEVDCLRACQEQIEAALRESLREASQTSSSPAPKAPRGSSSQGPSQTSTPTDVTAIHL
Sequence of CDK4 (P11802 whole entry): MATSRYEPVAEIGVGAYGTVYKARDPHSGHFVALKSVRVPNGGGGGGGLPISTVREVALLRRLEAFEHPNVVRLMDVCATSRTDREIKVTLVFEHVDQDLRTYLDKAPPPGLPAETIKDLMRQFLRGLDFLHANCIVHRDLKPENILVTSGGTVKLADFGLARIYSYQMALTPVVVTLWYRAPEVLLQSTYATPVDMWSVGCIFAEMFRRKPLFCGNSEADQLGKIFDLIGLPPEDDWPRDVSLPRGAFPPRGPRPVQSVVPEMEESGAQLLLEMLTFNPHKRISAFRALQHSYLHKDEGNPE
Sequence of CDK4 (P30281 whole entry partner): as the sequence (P30281 whole entry partner) above
Sequence of CDK5 (Q00535 whole entry): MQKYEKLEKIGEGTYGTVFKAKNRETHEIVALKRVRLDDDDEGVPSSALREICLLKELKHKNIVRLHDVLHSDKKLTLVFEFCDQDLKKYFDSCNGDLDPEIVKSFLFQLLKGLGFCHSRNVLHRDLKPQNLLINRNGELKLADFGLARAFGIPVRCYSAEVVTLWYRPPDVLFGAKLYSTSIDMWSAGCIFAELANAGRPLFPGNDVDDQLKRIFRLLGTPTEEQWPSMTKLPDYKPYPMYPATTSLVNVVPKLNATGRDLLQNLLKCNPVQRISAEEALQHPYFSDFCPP
Sequence of CDK5 (Q15078 99-307 partner): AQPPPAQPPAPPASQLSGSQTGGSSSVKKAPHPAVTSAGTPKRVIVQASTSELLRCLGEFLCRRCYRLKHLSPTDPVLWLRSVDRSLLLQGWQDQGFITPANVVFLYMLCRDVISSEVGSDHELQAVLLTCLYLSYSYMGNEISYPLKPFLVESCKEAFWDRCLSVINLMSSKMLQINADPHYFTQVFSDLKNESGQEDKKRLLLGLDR

Compound: CN1CCC(OCc2ccc(Nc3ncc(F)c(-c4cc(F)c5nc6n(c5c4)C(C)(C)CC6)n3)nc2)CC1 [Example 13, 5-fluoro-4-(5-fluoro-1,1-dimethyl-2,3-dihydro-1H-benzo[d]pyrrolo[1,2-a]imidazol-7-yl)-N-(5-((1-methylpiperidin-4-yloxy)methyl)pyridin-2-yl)pyrimidin-2-amine]
- IC50 (CDK4): 0.25 nM
- IC50 (CDK6): 3.92 nM
- IC50 (CDK2; read-out: CDK2 IC50): 174 nM
- IC50 (CDK5): 433 nM

Compound: CC(=O)c1c(C)c2cnc(Nc3ccc(N4CCNCC4)cn3)nc2n(C2CCCC2)c1=O [PD-0332991]
- cell cycle arrest (HSPCs): transient cell cycle arrest

Compound: CCN1CCN(c2ccc(Nc3ncc(F)c(-c4cc(F)c5nc6n(c5c4)C(C)(C)CC6)n3)nc2)CC1 [Example 15, N-(5-(4-ethylpiperazin-1-yl)pyridin-2-yl)-5-fluoro-4-(5-fluoro-1,1-dimethyl-2,3-dihydro-1H-benzo[d]pyrrolo[1,2-a]imidazol-7-yl)pyrimidin-2-amine, reference compound]
- IC50 (CDK4): 0.07 nM
- IC50 (CDK6): 0.88 nM
- IC50 (CDK2; read-out: CDK2 IC50): 117 nM and 21.6 nM
- IC50 (CDK5): 46.8 nM

Compound: CN1CCN(c2ccc(Nc3ncc4cc5n(c4n3)C3(CCCCC3)CNC5=O)nc2)CC1 [Example G1T28]
- cell cycle arrest (HSPCs): transient cell cycle arrest

- IC50 (CDK4): 0.08 nM
- IC50 (CDK6): 1.93 nM
- IC50 (CDK2; read-out: CDK2 IC50): 114 nM and 91 nM
- IC50 (CDK5): 38.3 nM
Compound: CCN1CCC(c2ccc(Nc3ncc(F)c(-c4cc(F)c5nc6n(c5c4)C(C)(C)CC6)n3)nc2)CC1 [Example 3, N-(5-(1-ethylpiperidin-4-yl)pyridin-2-yl)-5-fluoro-4-(5-fluoro-1,1-dimethyl-2,3-dihydro-1H-benzo[d]pyrrolo[1,2-a]imidazol-7-yl)pyrimidin-2-amine, reference compound]

Compound: CC1(C)CCc2nc3c(F)cc(-c4nc(Nc5ccc(OC6CCN(CCO)CC6)cn5)ncc4F)cc3n21 [Example 14, 2-(4-(6-(5-fluoro-4-(5-fluoro-1,1-dimethyl-2,3-dihydro-1H-benzo[d]pyrrolo[1,2-a]imidazol-7-yl)pyrimidin-2-ylamino)pyridin-3-yloxy)piperidin-1-yl)ethanol]
- IC50 (CDK4): 0.25 nM
- IC50 (CDK6): 2.72 nM
- IC50 (CDK2; read-out: CDK2 IC50): 70.3 nM
- IC50 (CDK5): 213 nM

Compound: CCN1CCN(Cc2ccc(Nc3ncc(F)c(-c4cc(F)c5nn6c(c5c4)CCC6)n3)nc2)CC1 [Example 16, N-(5-((4-ethylpiperazin-1-yl)methyl)pyridin-2-yl)-5-fluoro-4-(6-fluoro-2,3-dihydro-1H-pyrrolo[1,2-b]indazol-8-yl)pyrimidin-2-amine]
- IC50 (CDK4): 9.46 nM
- IC50 (CDK6): 93.7 nM
- IC50 (CDK2; read-out: CDK2 IC50): > 10000 nM
- IC50 (CDK5): > 10000 nM

Compound: CN(C)[C@H]1CCN(c2ccc(Nc3ncc(F)c(-c4cc(F)c5nc6n(c5c4)C(C)(C)CC6)n3)nc2)C1 [Example 7, (S)—N-(5-(3-(dimethylamino)pyrrolidin-1-yl)pyridin-2-yl)-5-fluoro-4-(5-fluoro-1,1-dimethyl-2,3-dihydro-1H-benzo[d]pyrrolo[1,2-a]imidazol-7-yl)pyrimidin-2-amine]
- IC50 (CDK4): 0.18 nM
- IC50 (CDK6): 3.96 nM
- IC50 (CDK2): 16.1 nM
- IC50 (CDK2; read-out: CDK2 IC50): 65.5 nM
- IC50 (CDK5): 50.6 nM

Compound: CCN1CCC(COc2ccc(Nc3cc(-c4cc(F)c5nc6n(c5c4)C(C)(C)CC6)c(F)cn3)nc2)CC1 [Example 9, N-(5-((1-ethylpiperidin-4-yl)methoxy)pyridin-2-yl)-5-fluoro-4-(5-fluoro-1,1-dimethyl-2,3-dihydro-1H-benzo[d]pyrrolo[1,2-a]imidazol-7-yl)pyridin-2-amine]
- IC50 (CDK4): 0.1 nM
- IC50 (CDK6): 2.9 nM
- IC50 (CDK2): 14.7 nM
- IC50 (CDK2; read-out: CDK2 IC50): 24.7 nM
- IC50 (CDK5): 11.3 nM

Compound: CC1(C)CCc2nc3c(F)cc(-c4nc(Nc5ccc(OCC6CCN(CCCO)CC6)cn5)ncc4F)cc3n21 [Example 11, 3-(4-((6-(5-fluoro-4-(5-fluoro-1,1-dimethyl-2,3-dihydro-1H-benzo[d]pyrrolo[1,2-a]imidazol-7-yl)pyrimidin-2-ylamino)pyridin-3-yloxy)methyl)piperidin-1-yl)propan-1-ol]
- IC50 (CDK4): 0.11 nM
- IC50 (CDK6): 1.02 nM
- IC50 (CDK2; read-out: CDK2 IC50): 44.9 nM
- IC50 (CDK5): 128 nM

Compound: CN(C)[C@H]1CCN(C(=O)c2ccc(Nc3ncc(F)c(-c4cc(F)c5nc6n(c5c4)C(C)(C)CC6)n3)nc2)C1 [Example 6, (S)-(3-(dimethylamino)pyrrolidin-1-yl)(6-(5-fluoro-4-(5-fluoro-1,1-dimethyl-2,3-dihydro-1H-benzo[d]pyrrolo[1,2-a]imidazol-7-yl)pyrimidin-2-ylamino)pyridin-3-yl)methanone]
- IC50 (CDK4): 0.2 nM
- IC50 (CDK6): 1.19 nM
- IC50 (CDK2): 5.62 nM
- IC50 (CDK2; read-out: CDK2 IC50): 20.4 nM
- IC50 (CDK5): 19.1 nM

Compound: CN1CCC(Oc2ccc(Nc3ncc(F)c(-c4cc(F)c5nc6n(c5c4)C(C)(C)CC6)n3)nc2)CC1 [Example 10, 5-fluoro-4-(5-fluoro-1,1-dimethyl-2,3-dihydro-1H-benzo[d]pyrrolo[1,2-a]imidazol-7-yl)-N-(5-(1-methylpiperidin-4-yloxy)pyridin-2-yl)pyrimidin-2-amine]
- IC50 (CDK4): 0.26 nM
- IC50 (CDK6): 2.46 nM
- IC50 (CDK2; read-out: CDK2 IC50): 64.1 nM
- IC50 (CDK5): 136 nM

Compound: CC1(C)CCc2nc3c(F)cc(-c4nc(Nc5ccc6c(n5)CCN(C(=O)CO)C6)ncc4F)cc3n21 [Example 5, 1-(2-(5-fluoro-4-(5-fluoro-1,1-dimethyl-2,3-dihydro-1H-benzo[d]pyrrolo[1,2-a]imidazol-7-yl)pyrimidin-2-ylamino)-7,8-dihydro-1,6-naphthyridin-6 (5H)-yl)-2-hydroxyethanone, reference compound]
- IC50 (CDK4): 0.12 nM
- IC50 (CDK6): 1.87 nM
- IC50 (CDK2; read-out: CDK2 IC50): 17.6 nM
- IC50 (CDK5): 36.8 nM

Compound: CN1CCC(COc2ccc(Nc3ncc(F)c(-c4cc(F)c5nc6n(c5c4)C(C)(C)CC6)n3)nc2)CC1 [Example 12, 5-fluoro-4-(5-fluoro-1,1-dimethyl-2,3-dihydro-1H-benzo[d]pyrrolo[1,2-a]imidazol-7-yl)-N-(5-((1-methylpiperidin-4-yl)methoxy)pyridin-2-yl)pyrimidin-2-amine]
- IC50 (CDK4): 0.11 nM
- IC50 (CDK6): 1.89 nM
- IC50 (CDK2; read-out: CDK2 IC50): 55.2 nM
- IC50 (CDK5): 159 nM

Compound: CCN1CCC(COc2ccc(Nc3ncc(F)c(-c4cc(F)c5nc6n(c5c4)C(C)(C)CC6)n3)nc2)CC1 [Example 8, N-(5-((1-ethylpiperidin-4-yl)methoxy)pyridin-2-yl)-5-fluoro-4-(5-fluoro-1,1-dimethyl-2,3-dihydro-1H-benzo[d]pyrrolo[1,2-a]imidazol-7-yl)pyrimidin-2-amine]
- IC50 (CDK2): 285 nM
- IC50 (CDK2; read-out: CDK2 IC50): 368 nM
- IC50 (CDK5): 705 nM
- half-life ([1]; NADPH, 37° C.): 1.34 h
- CLint scaled ([1]; scaled): 21.7 mL/min/kg
- half-life ([2]; NADPH, 37° C.): 1.29 h
- CLint scaled ([2]; scaled): 32.2 mL/min/kg
- half-life ([3]; NADPH, 37° C.): 0.45 h
- CLint scaled ([3]; scaled): 202 mL/min/kg
- half-life ([4]; NADPH, 37° C.): 0.402 h
- CLint scaled ([4]; scaled): 143 mL/min/kg
- half-life ([5]; NADPH, 37° C.): 0.223 h
- CLint scaled ([5]; scaled): 151 mL/min/kg
- G1 % (max) (HS68 cells): 79.35%
- F ([6]; 10 mg/kg p.o. vs 2 mg/kg i.v.): 45.6%
- AUC(0-t) ([6]; plasma, iv, 2 mg/kg): 2110 ng·h/mL
- Vd ([6]; plasma, iv, 2 mg/kg): 3.71 L/kg
- clearance ([6]; plasma, iv, 2 mg/kg): 15.7 mL/min/kg
- half-life ([6]; plasma, iv, 2 mg/kg): 3.36 h
- AUC(0-t) ([6]; plasma, po, 10 mg/kg): 4820 ng·h/mL
- Cmax ([6]; plasma, po, 10 mg/kg): 340 ng/mL
- Tmax ([6]; plasma, po, 10 mg/kg): 6 h
